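Results reflect a 48-hour exposure of cells in 96-well plates to compound at five concentrations. The concentration for full growth arrest is given as TGI.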
Assays:
Test in all cases: NCI-60 cell line screen, 48 h
[1] = tested on: ACHN renal
[2] = tested on: MDA-N
[3] = tested on: NCI-H522 lung
[4] = tested on: HOP-92 NSCLC
[5] = tested on: HT29 colon
[6] = tested on: UACC-257 melanoma
[7] = tested on: HOP-62 NSCLC
[8] = tested on: HCT-15 colon
[9] = tested on: LOX IMVI melanoma
[10] = tested on: SNB-75 CNS
[11] = tested on: TK-10 renal
[12] = tested on: HS 578T breast
[13] = tested on: OVCAR-4 ovarian
[14] = tested on: SN12C renal
[15] = tested on: K-562 leukemia
[16] = tested on: KM12 colon
[17] = tested on: RPMI-8226 leukemia
[18] = tested on: A498 renal
[19] = tested on: SW-620 colon
[20] = tested on: PC-3 prostate
[21] = tested on: NCI-H23 lung
[22] = tested on: MOLT-4 leukemia
[23] = tested on: BT-549 breast
[24] = tested on: M14 melanoma
[25] = tested on: COLO 205 colon
[26] = tested on: OVCAR-5 ovarian
[27] = tested on: CAKI-1 renal
[28] = tested on: SF-268 CNS
[29] = tested on: T-47D breast
[30] = tested on: SK-MEL-5 melanoma
[31] = tested on: HCT-116 colon
[32] = tested on: EKVX NSCLC
[33] = tested on: MDA-MB-231 breast
[34] = tested on: UACC-62 melanoma
[35] = tested on: A549 NSCLC
[36] = tested on: CCRF-CEM leukemia
[37] = tested on: DU-145 prostate
[38] = tested on: NCI/ADR-RES ovarian
[39] = tested on: IGROV1 ovarian
[40] = tested on: NCI-H226 lung
[41] = tested on: RXF 393 renal
[42] = tested on: MALME-3M melanoma
[43] = tested on: SNB-19 CNS
[44] = tested on: 786-0 renal
[45] = tested on: MDA-MB-435
[46] = tested on: OVCAR-8 ovarian
[47] = tested on: U251 CNS
[48] = tested on: UO-31 renal
[49] = tested on: SK-OV-3 ovarian
[50] = tested on: SK-MEL-28 melanoma
[51] = tested on: SF-295 CNS
[52] = tested on: SK-MEL-2 melanoma
[53] = tested on: OVCAR-3 ovarian
[54] = tested on: SF-539 CNS
[55] = tested on: NCI-H460 lung
[56] = tested on: HL-60(TB) leukemia
[57] = tested on: MCF7 breast

## C[C@@H](CO)C1=C(O)c2ccc3c(c2C(=O)C1=O)CCCC3(C)C
[1]
  TGI: 43.2 µM
[2]
  TGI: > 100 µM
[3]
  TGI: 62.6 µM
[4]
  TGI: > 100 µM
[5]
  TGI: > 100 µM
[6]
  TGI: > 100 µM
[7]
  TGI: > 100 µM
[8]
  TGI: > 100 µM
[9]
  TGI: > 100 µM
[10]
  TGI: > 100 µM
[11]
  TGI: > 100 µM
[12]
  TGI: > 100 µM
[13]
  TGI: > 100 µM
[14]
  TGI: > 100 µM
[15]
  TGI: > 100 µM
[16]
  TGI: > 100 µM
[17]
  TGI: > 100 µM
[18]
  TGI: > 100 µM
[19]
  TGI: > 100 µM
[20]
  TGI: > 100 µM
[21]
  TGI: 56.1 µM
[22]
  TGI: > 100 µM
[23]
  TGI: > 100 µM
[24]
  TGI: 40.6 µM
[25]
  TGI: > 100 µM
[26]
  TGI: > 100 µM
[27]
  TGI: > 100 µM
[28]
  TGI: > 100 µM
[29]
  TGI: > 100 µM
[30]
  TGI: > 100 µM
[31]
  TGI: > 100 µM
[32]
  TGI: > 100 µM
[33]
  TGI: > 100 µM
[34]
  TGI: 77.4 µM
[35]
  TGI: > 100 µM
[36]
  TGI: 34 µM
[37]
  TGI: > 100 µM
[38]
  TGI: > 100 µM
[39]
  TGI: > 100 µM
[40]
  TGI: > 100 µM
[41]
  TGI: > 100 µM
[42]
  TGI: 50 µM
[43]
  TGI: 68.9 µM
[44]
  TGI: > 100 µM
[45]
  TGI: > 100 µM
[46]
  TGI: > 100 µM
[47]
  TGI: > 100 µM
[48]
  TGI: > 100 µM
[49]
  TGI: > 100 µM
[50]
  TGI: > 100 µM
[51]
  TGI: > 100 µM
[52]
  TGI: 84.7 µM
[53]
  TGI: > 100 µM

## O=C1NC(N/N=C/c2cccs2)=N/C1=C\c1ccco1
[1]
  TGI: > 100 µM
[2]
  TGI: 13.6 µM
[3]
  TGI: 39.9 µM
[4]
  TGI: > 100 µM
[5]
  TGI: > 100 µM
[6]
  TGI: > 100 µM
[54]
  TGI: > 100 µM
[7]
  TGI: > 100 µM
[8]
  TGI: > 100 µM
[9]
  TGI: > 100 µM
[10]
  TGI: > 100 µM
[11]
  TGI: > 100 µM
[12]
  TGI: 76.7 µM
[13]
  TGI: > 100 µM
[14]
  TGI: > 100 µM
[15]
  TGI: > 100 µM
[16]
  TGI: > 100 µM
[17]
  TGI: 94.8 µM
[18]
  TGI: 82.5 µM
[19]
  TGI: > 100 µM
[20]
  TGI: > 100 µM
[21]
  TGI: > 100 µM
[22]
  TGI: > 100 µM
[23]
  TGI: > 100 µM
[24]
  TGI: > 100 µM
[25]
  TGI: > 100 µM
[26]
  TGI: > 100 µM
[27]
  TGI: > 100 µM
[28]
  TGI: > 100 µM
[29]
  TGI: > 100 µM
[55]
  TGI: > 100 µM
[56]
  TGI: > 100 µM
[57]
  TGI: > 100 µM
[30]
  TGI: > 100 µM
[31]
  TGI: > 100 µM
[32]
  TGI: > 100 µM
[33]
  TGI: > 100 µM
[34]
  TGI: > 100 µM
[35]
  TGI: > 100 µM
[36]
  TGI: > 100 µM
[37]
  TGI: > 100 µM
[38]
  TGI: > 100 µM
[39]
  TGI: > 100 µM
[40]
  TGI: > 100 µM
[41]
  TGI: > 100 µM
[42]
  TGI: > 100 µM
[43]
  TGI: > 100 µM
[44]
  TGI: > 100 µM
[45]
  TGI: 90.4 µM
[46]
  TGI: > 100 µM
[47]
  TGI: > 100 µM
[48]
  TGI: > 100 µM
[49]
  TGI: 70.6 µM
[50]
  TGI: > 100 µM
[51]
  TGI: > 100 µM
[52]
  TGI: 62.4 µM
[53]
  TGI: 74.4 µM

## CCOC(=O)CO/N=C\C1=CC(=O)C2CC1C2(C)C (stereo not given)
[1]
  TGI: > 100 µM
[2]
  TGI: > 100 µM
[5]
  TGI: > 100 µM
[6]
  TGI: > 100 µM
[54]
  TGI: > 100 µM
[8]
  TGI: > 100 µM
[9]
  TGI: > 100 µM
[10]
  TGI: > 100 µM
[11]
  TGI: > 100 µM
[12]
  TGI: > 100 µM
[14]
  TGI: > 100 µM
[15]
  TGI: > 100 µM
[16]
  TGI: > 100 µM
[17]
  TGI: > 100 µM
[18]
  TGI: > 100 µM
[19]
  TGI: > 100 µM
[20]
  TGI: > 100 µM
[21]
  TGI: > 100 µM
[22]
  TGI: > 100 µM
[23]
  TGI: > 100 µM
[24]
  TGI: > 100 µM
[25]
  TGI: > 100 µM
[26]
  TGI: > 100 µM
[27]
  TGI: > 100 µM
[28]
  TGI: > 100 µM
[29]
  TGI: > 100 µM
[56]
  TGI: > 100 µM
[57]
  TGI: > 100 µM
[30]
  TGI: > 100 µM
[31]
  TGI: > 100 µM
[32]
  TGI: > 100 µM
[33]
  TGI: > 100 µM
[34]
  TGI: > 100 µM
[36]
  TGI: > 100 µM
[37]
  TGI: > 100 µM
[38]
  TGI: > 100 µM
[39]
  TGI: > 100 µM
[40]
  TGI: > 100 µM
[41]
  TGI: > 100 µM
[42]
  TGI: > 100 µM
[43]
  TGI: > 100 µM
[44]
  TGI: > 100 µM
[45]
  TGI: > 100 µM
[46]
  TGI: > 100 µM
[47]
  TGI: > 100 µM
[48]
  TGI: > 100 µM
[50]
  TGI: > 100 µM
[51]
  TGI: > 100 µM
[52]
  TGI: > 100 µM
[53]
  TGI: > 100 µM

Reference: PubChem BioAssay (NCI)
